Measured values taken from US8389030B2, “Nematicides from Juglandaceae and methods of use thereof” (Redox Chemicals, Inc., priority 2004, dated 2013).

What was measured:
nematodes in soil = test: Orange grove field trial: reduction of nematodes in soil vs untreated soil; assay type: in vivo; details: clay loam soil, compared to untreated soil, NatureCur applied 3 times 30 days apart at 5000 ppm, the other agents applied once in mid-May
Procedure: (§1) A field trial was conducted on an orange grove, comparing the effect of the composition described in Example 1 (under its trade name, NatureCur™) against two widely used, commercially available nematicides, an emusifiable concentrate of 1,3 dichloropropene which can be applied to the soil after plants are planted (called a “post-plant” application) (Dow AgroSciences LLC, Indianapolis, Ind.), shown on the accompanying charts as “Cordon,” and imidacloprid, an insecticide marketed under the name Admire® (Bayer CropScience LP, Research Triangle Park, N.C.). For the soil treated with Cordon and the soil treated with Admire®, single applications of the agents were made in mid-May. The product NatureCur™ was applied in once in mid-May, once 30 days later in mid-June, and once again 30 days later in mid July, each time at a concentration of 5000 ppm. The soil in the grove was a clay loam, a very dense, heavy soil in which it is difficult to get agents to travel. Thus, the soil in this grove provided a particularly difficult test condition for NatureCur™, which has to infiltrate through the soil in water.
Samples were taken of the soil around the plants and of the roots. The percentage of reduction in number of nematodes in soil treated with the three agents compared to untreated soil is shown in Table 1 and FIG. 1.

nematodes in roots = test: Orange grove field trial: reduction of nematodes in plant roots vs plants in untreated soil; assay type: in vivo; details: clay loam soil, compared to roots of plants in untreated soil, NatureCur applied 3 times 30 days apart at 5000 ppm, the other agents applied once in mid-May
Procedure: as §1
The percentage of reduction in number of nematodes in roots of plants whose soil was treated with the three agents compared to roots of plants in untreated soil is shown in Table 2 and FIG. 2.

Compound | Percent reduction in nematodes in soil (nematodes in soil) [%] | Percent reduction in nematodes in roots (nematodes in roots) [%]
ClC=CCCl [1,3 dichloropropene] | 58 | 61
O=[N+]([O-])NC1=NCCN1Cc1ccc(Cl)nc1 [Imidacloprid, imidacloprid] | 32 | 46
